Reference: US10758609B2, “Cross-reactive T-cell epitopes of HIV, SIV, and FIV for vaccines in humans and cats” (priority 2015, dated 2020)
Residues, ends and D or L forms follow the SMILES beside them.

Legend:
[1] = tested on: PBMC from FIV-vaccinated cats; assay: Feline IFNγ ELISpot of PBMC from vaccinated cats; type: cell-based, cat
Procedure: (§1) IFNγ and IL2 ELISpot analyses were performed using feline IFNγ ELISpot and feline IL2 ELISpot kits (R&D Systems, Cat# SEL764 and SEL1890) as described. The threshold is defined as ≥50 spot forming units (SFU) per 1×10^6 PBMC when counted with MVS ELISpot Reader (MVS Pacific, LLC). Each result is an average of the duplicate samples after subtraction of the average value of the media controls.
(§2) Concurrently, the overlapping peptide pools of FIV structural/enzyme proteins were used to stimulate PBMC and T cells from FIV-vaccinated cats. These cats were vaccinated with prototype dual-subtype FIV vaccine which was the prototype to our commercial FIV vaccine (Coleman et al., 2014). The feline assays (Example 1) equivalent to those of human assays (Sanou et al., 2013; Roff et al., 2015) were used except for ICS analysis. In place of ICS for cytolysin/cytotoxins, IL2 ELISpot analysis was performed. […] The results for FIV-vaccinated cats included IFNγ and IL2 productions and CD3^+CD4+ and CD3^+CD8^+ T-cell proliferation (Table 9, the second set of results).
(§3) The feline IFNγ and L2 ELISpot analyses of PBMC to FIV MAPs and peptides were performed as previously described (Abbott et al. (2012)) using feline IFNγ modular kit (R&D Systems, Minneapolis, Minn.) and feline IL2 modular kit (R&D Systems). All results shown in the figures (FIGS. 8A-1, 8B-1, 8A-2, 8B-2, 8A-3, 8B-3) are after subtracting the average value of the results from all control cats.
(§4) The second parameter evaluated was the ability of the peripheral blood mononuclear cells (PBMC) from vaccinated and control cats to produce IL2 and interferon-γ (IFNγ) proteins in responses to FIV MAPs and peptides (FIGS. 8A-1, 8A-2, 8A-3, 8B-1, 8B-2, 8B-3) using feline IL2 and IFNγ ELISpot assays (Aranyos et al. (2016); Abbott et al. (2012)). IL2 enhances the proliferation of FIV-specific CD4^+ T cells and CD8^+ T cells. IFNγ is known enhance the FIV-specific CTL activities in vaccinated cats (Abbas et al. (2015)).

[2] = tested on: PBMC from FIV-vaccinated cats; assay: Feline IL2 ELISpot of PBMC from vaccinated cats; type: cell-based, cat
Procedure: as §1, §2, §3, §4

[3] = tested on: feline CD3^+CD4^+ T cells; assay: CFSE-based feline CD3+CD4+ T-cell proliferation; set-up: species or system cat; settings: FIV-vaccinated cats; for CD4, frequency of responders: FIV epitope peptide; for CDC4^+ T (T-cell proliferation), frequency of responders: FIV peptides
Procedure: (§5) Carboxyfluorescein diacetate succinimide ester (CFSE)-proliferation was performed according to the manufacturer's protocol (Invitrogen, Grand Island, N.Y.) and processed using a previously described modification. The modification consisted of 2.5×10^5 CFSE-labeled feline PBMC stimulated for 5 days (37° C., 5% CO2) with 4 μg/mL peptide in culture media (RPMI medium 25 µg/mL gentamycin, and 10% heat-inactivated fetal bovine serum (FBS)). Peptide pools consisted of 3-5 overlapping peptides of 4 μg/mL each. The antibodies used for flow cytometry based proliferation analysis consisted of murine anti-feline (Fe) CD3 monoclonal antibody (MAb clone kindly provided by Drs. Yorihiro Nishimura and Takayuki Miyazawa; described in [32]) combined with secondary goat anti-mouse IgG3-APC/CY7 MAb (SouthernBiotech, Birmingham, Ala.; Cat#1100-19); and murine anti-FeCD4-PE MAb (SouthernBiotech, Cat#8130-09); and murine anti-FeCD8 MAb (MAb clone kindly provided by Dr. Nazareth Gengozian, described in [33]) with secondary goat anti-mouse IgG2a-PE/CY7 (Southern Biotech, Cat#1080-17). The murine anti-B220-APC MAb for detecting feline B cells (SouthernBiotech, Cat#1665-11) and previously described MAbs for CFSE were used for FACS phenotyping. Both FACS phenotyping and CFSE-proliferation analyses were performed with BD LSRII and FACSDiva™ Software (BD Biosciences, San Jose, Calif.). The final value for each sample was derived after subtraction of the average value of the media controls using a positive threshold of ≥1 CFSE^low.
as §2
(§6) Carboxyfluorescein diacetate succinimide ester (CFSE)-proliferation analysis was according to the manufacturer's protocol (Invitrogen-Fisher, Carlsbad, Calif.) and processed as previously described (Roff et al. (2015)) using the following modifications: anti-feline CD3 antibody ((clone NZM1), a generous gift from T. Miyazawa (Univ. of Tokyo, Japan)) in combination with APC-conjugated anti-mouse IgG3 (Southern Biotech, Birmingham, Ala.), PE-conjugated anti-feline CD4 antibody (Southern Biotech), and anti-feline CD8 antibody (gift from N. Gengozian, University of Tennessee (Gengozian et al. (1997))) in combination with PE/Cy7-conjugated anti-mouse IgG2b (Southern Biotech) to detect the proliferation of feline CD3^+CD4+ T cells and feline […]. All results shown in the figures (FIGS. 7A-1, 7B-1, 7A-2, 7B-2, 7A-3, 7B-3) are after subtracting the average value of each results from all control cats. The threshold of CFSE proliferation is ≥0.5 CFSE^low. […]

[4] = tested on: feline CD3^+CD8^+ T cells; assay: CFSE-based feline CD3+CD8+ T-cell proliferation; set-up: species or system cat; settings: FIV-vaccinated cats; for CD8, frequency of responders: FIV epitope peptide; for CD8^+ T (T-cell proliferation), frequency of responders: FIV peptides
Procedure: as §5, §2, §6

[5] = tested on: CD4^+ T cells from HIV^+ subjects; settings: HIV-1 peptides; HIV+ human subjects
Procedure: The overlapping peptide pools of FIV and HIV-1 structural and enzyme proteins were used to stimulate the […] (PBMC) and the T cells from HIV^+ subjects as previously described for epitope mapping of HIV-1 and FIV p24 and reverse transcriptase (RT) (Sanou et al., 2013; Roff et al., 2015). The individual peptides in those peptide pools with positive responses to either interferon-γ (IFNγ) production and/or T-cell proliferation were determined with IFNγ ELISpot analysis and CFSE-based CD3^+CD4^+ and CD3^+CD8^+ T-cell proliferation analyses followed by the FACS-based intracellular staining (ICS) for cytolysin (perforin) and cytotoxin (granzyme A [GrzA] and GrzB) (Sanou et al., 2013; Roff et al., 2015). Besides viral p24 and RT proteins, the identical approach was used to identify anti-HIV/FIV T-cell epitopes on viral matrix (MA), nucleocapsid (NC), protease (PR), RNAase, integrase (IN), surface envelope (SU Env), and transmembrane envelope (TM Env) (FIG. 12).
Since our goal is to develop HIV vaccine for human use, the HIV peptides (Table 10) counterpart of the cross-reactive FIV peptides shown in Table 9 were tested with PBMC and T cells from HIV^+ subjects. The immune functions analyzed were human IFNγ production by ELISpot, cytolysin/cytotoxin production by ICS, and CFSE-based proliferation of CD3^+CD4^+ and CD3^+CD8^+ T cells from HIV^+ subjects (Table 10, the first set of results). In addition, the Los Alamos National Laboratories (LANL) database was used to identify the HLA allele(s) of the HIV epitope sequence with CTL activity that can exist within the sequence of the conserved counterpart HIV peptide (Table 9, LANL CTL). The bold HLA class-I supertypes and the bold 2-digit alleles are those on the “Optimal CD8^+ CTL Epitopes” list and those without bold are alleles for potential CTL epitope. […] The HLA class II such as HLA-DRB1 has yet to be fully classified into supertypes, and therefore the 4-digit resolution nomenclatures for the HLA-DRB1 alleles are shown.
The counterpart HIV-1 peptides of the FIV peptides were also tested for immunogenicity using PBMC and T cells from HIV^+ human subjects. […] The HRT7-1 and HRT7-2 were also tested with cells from HIV^+ subjects on ART. The threshold for positive IFNγ ELISpot response is ≥75 spot-forming units (SFU) per 10^6 PBMC. The threshold for CFSE-based CD4^+ (CD4^+ T) and CD8^+ (CD8^+ T) T-cell proliferation is ≥2% CD4^+ T-cell CFSE^low or CD8^+ T-cell CFSE^low. The threshold of intracellular cytokine staining (ICS) of FACS-based cytolysin (perforin) and cytotoxins (granzymes A and B) in CD4^+ T cells (CyCD4) and CD8^+ T cells (CyCD8) is ≥0.2%. […] The nine HIV-1 peptides in black are the counterpart FIV peptides used in the current MAP vaccine trial, whereas the 13 peptides in blue were not.

[6] = FIV epitope peptide, FIV-vaccinated cats
[7] = FIV peptides, FIV-vaccinated cats (prototype dual-subtype vaccine)

Row | Molecule | IFNγ, frequency of responders [1, 6] | IFNγ, frequency of responders [1, 7] | IL2, frequency of responders ([2]; FIV epitope peptide) | IL2, frequency of responders ([2]; FIV peptides) | CD4, frequency of responders [3] | CDC4^+ T (T-cell proliferation), frequency of responders [3] | CD8, frequency of responders [4] | CD8^+ T (T-cell proliferation), frequency of responders [4] | CyCD4 (cytolysin and cytotoxin production of CD4+ T cells), frequency of responders [5]
1 | GSSKEIDMAIVTLKV [FMA2] | ++ (26%-40% (++)) | ++ (25.1%-40% (++)) | ++ (26%-40% (++)) | ++ (25.1%-40% (++)) | ++++ (>54% (++++)) | ++++ (>54% (++++)) | ++++ (>54% (++++)) | ++++ (>54% (++++)) | 
2 | CSCC[C@H](NC(=O)[C@H](Cc1c[nH]c2ccccc12)NC(=O)[C@H](CC(N)=O)NC(=O)[C@H](CCCCN)NC(=O)[C@@H](NC(=O)[C@H](CCC(=O)O)NC(=O)[C@H](CCC(N)=O)NC(=O)[C@H](CO)NC(=O)[C@H](C)N)C(C)C)C(=O)N[C@H](C(=O)N[C@@H](CCC(=O)O)C(=O)N[C@H](C(=O)N[C@@H](CC(C)C)C(=O)N[C@@H](CC(C)C)C(=O)N[C@H](C(=O)O)C(C)C)[C@@H](C)O)[C@@H](C)O [Hp14-2(15-2)] (H-ASQEVKNWMTETLLV-OH; N-terminus and C-terminus assumed) |  |  |  |  |  |  |  |  | ++++ (>54% (++++))
3 | WRMLIDFRVLNKLTDKGA [FRT3-4/5] |  | — (0%-1.4%(—)) |  | +++ (40.1%-54% (+++)) |  | — (0%-1.4%(—)) |  | — (0%-1.4%(—)) | 
4 | AAAPVNQMQQAVMPSA [FNC2] | ++++ (>54% (++++)) | ++++ (>54% (++++)) | ++++ (>54% (++++)) | ++++ (>54% (++++)) | — (0%-1.4% (—)) | — (0%-1.4%(—)) | ++++ (>54% (++++)) | ++++ (>54% (++++)) | 
5 | TLEKRPEILIFVNG [FPR1] | — (0%-1.4% (—)) | — (0%-1.4%(—)) | — (0%-1.4% (—)) | — (0%-1.4%(—)) | ++++ (>54% (++++)) | ++++ (>54% (++++)) | ++++ (>54% (++++)) | ++++ (>54% (++++)) | 
